Values belong to the compound of their own block, whether it stands above or below them. Activity calls are given as the source filed them.
What was measured:
[1] = biological target: 5-hydroxytryptamine receptor 2A (Mus musculus, UniProt P35363); type: functional, cell-based;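 also: CHO-K1 cells with tagged receptor and beta-arrestin; agonist potency measured as compound-induced activation of the receptor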
Mu-type opioid receptor = Mu-type opioid receptor (Homo sapiens, UniProt P35372); type: functional, cell-based;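 also: U2OS cells with beta-arrestin recruitment to OPRM1 by beta-gal complementation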
Chain of Mu-type opioid receptor (P35372 whole entry, the tested form may be a part): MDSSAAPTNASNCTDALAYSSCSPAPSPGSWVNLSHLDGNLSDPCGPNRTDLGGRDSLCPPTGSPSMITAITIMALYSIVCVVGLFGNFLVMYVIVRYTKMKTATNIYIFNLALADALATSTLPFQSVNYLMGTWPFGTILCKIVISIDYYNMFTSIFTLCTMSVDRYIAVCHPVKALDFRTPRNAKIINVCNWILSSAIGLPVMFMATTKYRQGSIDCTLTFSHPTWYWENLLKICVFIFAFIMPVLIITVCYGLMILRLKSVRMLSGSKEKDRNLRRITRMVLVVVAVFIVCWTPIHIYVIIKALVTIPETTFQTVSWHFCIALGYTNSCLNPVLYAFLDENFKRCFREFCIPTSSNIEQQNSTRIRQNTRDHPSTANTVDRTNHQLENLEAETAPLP

[2] = ZM109 Env clade C HIV-1 fusion inhibitors, dose response, HeLa effector, CEM target cells, luciferase, cherry-pick (AID 652058); type: functional, cell-based
[3] = off-target signal loss in HeLa-CEM21 co-culture – HeLa F-luc CTL cells, cherry-picked, counter-screen for HIV-1 Env fusion inhibitor project, dose response (AID 652040); type: functional, cell-based;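 also: potency for signal decrease marking cytotoxic or nonspecific inhibition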
[4] = inhibitors of HIV Env-driven cell fusion, dose response, cherry-pick (AID 652057); type: functional, cell-based
[5] = inhibitors of clade B AD8 Env fusion, dose response, cell-based, cherry-pick (AID 652062); type: functional;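 also: luciferase signal from cell-cell fusion driven by HIV-1 clade B AD8 Env; potency is for inhibitors of fusion seen as a drop in luminescence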
[6] = MC4R antagonists, dose response, counter-screen for LGR2 antagonist project, cell-based, plate reader, cherry pick (AID 743444); type: functional;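 also: transfected HEK 293 cells stimulated with alpha-MSH peptide; potency of inhibitors of the alpha-MSH evoked signal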
Fatty acid synthase [7] = biological target: T1, Fatty acid synthase (Homo sapiens, UniProt P49327); test: FAS thioesterase domain inhibitors, dose response, biochemical, kinetic fluorescence intensity (AID 624326); type: functional;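 also: rate of fluorescence rise from hydrolysis of a fluorogenic O-methyl fluorescein ester substrate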
[8] = HepG2 cell cytotoxicity, dose response, cytotoxicity control, plate reader, cherry-pick, antagonist series (AID 743416); type: functional, cell-based
Fatty acid synthase [9] = biological target: T1, Fatty acid synthase; test: FAS thioesterase domain inhibitors, dose response, biochemical, endpoint fluorescence intensity, uHTS hits (AID 624327); type: functional;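 also: fluorescence from hydrolysis of an O-methyl fluorescein acyl ester substrate by the enzyme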
[10] = LGR2 antagonists, dose response, cell-based, HEK293, CRE-luciferase reporter, cherry pick, set 2 (AID 743343); type: functional;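 also: transfected cells were stimulated with diluted bursicon conditioned medium after compound addition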
Mucolipin-3 = biological target: T2, Mucolipin-3 (Homo sapiens, UniProt Q8TDD5); test: Dose response cell-based high-throughput screening assay for agonists of the transient receptor potential channel ML3 (TRPML3). [Related pubchem assays: 1526, 1424, 1448 ]; type: functional
T2 sequence (Q8TDD5 whole entry): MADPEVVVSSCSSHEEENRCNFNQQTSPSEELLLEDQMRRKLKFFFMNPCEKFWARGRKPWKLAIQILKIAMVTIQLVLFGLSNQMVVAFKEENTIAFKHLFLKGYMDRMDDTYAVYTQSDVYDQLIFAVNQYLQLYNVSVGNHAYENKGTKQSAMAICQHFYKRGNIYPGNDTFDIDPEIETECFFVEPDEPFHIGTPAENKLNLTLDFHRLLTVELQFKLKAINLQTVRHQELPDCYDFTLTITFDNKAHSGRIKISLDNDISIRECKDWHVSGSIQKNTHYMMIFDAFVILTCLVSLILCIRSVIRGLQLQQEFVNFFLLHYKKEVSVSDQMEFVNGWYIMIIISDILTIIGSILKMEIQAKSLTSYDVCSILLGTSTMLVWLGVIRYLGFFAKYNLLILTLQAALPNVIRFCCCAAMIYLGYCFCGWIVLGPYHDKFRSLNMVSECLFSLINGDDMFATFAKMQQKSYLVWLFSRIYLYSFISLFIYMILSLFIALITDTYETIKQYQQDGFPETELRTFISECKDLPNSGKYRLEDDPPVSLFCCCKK

Ion channel NompC = Ion channel NompC (Danio rerio, UniProt Q7T1G6); test: Fluorescence counterscreen assay for TRPML3 agonists: dose response cell-based high-throughput screening assay to identify agonists of the transient receptor potential channel N1 (TRPN1). [Related pubchem assays: 1526, 1424, 1448 ]; type: functional
[11] = biological target: Protein-tyrosine kinase 2-beta (Homo sapiens, UniProt Q14289);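 also: potency of inhibitors of PYK2 kinase phosphorylation of poly-GT substrate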
Chain of Protein-tyrosine kinase 2-beta (Q14289 whole entry): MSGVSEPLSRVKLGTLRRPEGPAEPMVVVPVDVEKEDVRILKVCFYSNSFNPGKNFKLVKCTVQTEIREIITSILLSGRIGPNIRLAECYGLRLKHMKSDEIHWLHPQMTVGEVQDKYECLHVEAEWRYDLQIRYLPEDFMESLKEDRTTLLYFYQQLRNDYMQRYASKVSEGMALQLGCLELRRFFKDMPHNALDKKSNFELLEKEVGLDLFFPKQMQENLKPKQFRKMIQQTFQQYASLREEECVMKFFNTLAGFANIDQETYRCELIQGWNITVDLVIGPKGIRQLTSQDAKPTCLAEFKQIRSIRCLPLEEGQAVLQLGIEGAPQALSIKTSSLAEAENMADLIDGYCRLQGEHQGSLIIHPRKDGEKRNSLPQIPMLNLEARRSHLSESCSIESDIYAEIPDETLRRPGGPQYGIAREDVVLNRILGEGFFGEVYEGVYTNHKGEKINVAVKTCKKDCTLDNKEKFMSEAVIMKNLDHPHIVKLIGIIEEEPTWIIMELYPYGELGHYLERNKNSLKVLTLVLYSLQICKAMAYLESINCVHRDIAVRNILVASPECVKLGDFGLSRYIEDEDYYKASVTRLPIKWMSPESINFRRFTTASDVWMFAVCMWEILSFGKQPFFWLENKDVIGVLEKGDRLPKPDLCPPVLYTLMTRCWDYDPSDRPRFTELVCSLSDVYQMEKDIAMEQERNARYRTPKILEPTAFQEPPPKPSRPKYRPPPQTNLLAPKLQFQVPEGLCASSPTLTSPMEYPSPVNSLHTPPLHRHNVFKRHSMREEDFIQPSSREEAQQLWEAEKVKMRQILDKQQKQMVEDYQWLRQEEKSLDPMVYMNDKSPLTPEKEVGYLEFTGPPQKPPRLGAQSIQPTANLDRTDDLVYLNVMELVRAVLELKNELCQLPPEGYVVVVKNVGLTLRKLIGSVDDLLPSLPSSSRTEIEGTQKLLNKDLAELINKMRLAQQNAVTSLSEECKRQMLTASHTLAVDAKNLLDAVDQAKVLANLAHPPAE

Cytochrome P450 3A4 = Cytochrome P450 3A4 (Homo sapiens, UniProt P08684);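 also: CYP3A4 tested as one member of a cytochrome P450 panel screen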
Chain of Cytochrome P450 3A4 (P08684 whole entry): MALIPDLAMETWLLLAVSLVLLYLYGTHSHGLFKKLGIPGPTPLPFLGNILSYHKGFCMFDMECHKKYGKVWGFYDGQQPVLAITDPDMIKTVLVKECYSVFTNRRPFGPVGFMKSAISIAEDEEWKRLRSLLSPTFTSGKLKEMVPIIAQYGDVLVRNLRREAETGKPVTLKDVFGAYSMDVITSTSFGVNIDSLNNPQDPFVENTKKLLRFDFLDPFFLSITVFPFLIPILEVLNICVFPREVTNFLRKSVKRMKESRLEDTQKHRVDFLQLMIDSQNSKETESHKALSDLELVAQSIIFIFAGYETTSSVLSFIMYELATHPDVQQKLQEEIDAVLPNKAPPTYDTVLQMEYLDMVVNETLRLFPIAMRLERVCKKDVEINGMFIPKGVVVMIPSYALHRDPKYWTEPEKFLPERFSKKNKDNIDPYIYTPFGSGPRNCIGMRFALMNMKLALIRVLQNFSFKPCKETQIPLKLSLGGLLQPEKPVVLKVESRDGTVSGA

Estrogen receptor beta [12] = biological target: T3, Estrogen receptor beta (Homo sapiens, UniProt Q92731); test: ERβ–SRC-3 coactivator interaction inhibitors, confirmation, orthogonal assay, biochemical, ELISA, streptavidin-HRP readout (AID 1060)
T3 sequence (Q92731 whole entry): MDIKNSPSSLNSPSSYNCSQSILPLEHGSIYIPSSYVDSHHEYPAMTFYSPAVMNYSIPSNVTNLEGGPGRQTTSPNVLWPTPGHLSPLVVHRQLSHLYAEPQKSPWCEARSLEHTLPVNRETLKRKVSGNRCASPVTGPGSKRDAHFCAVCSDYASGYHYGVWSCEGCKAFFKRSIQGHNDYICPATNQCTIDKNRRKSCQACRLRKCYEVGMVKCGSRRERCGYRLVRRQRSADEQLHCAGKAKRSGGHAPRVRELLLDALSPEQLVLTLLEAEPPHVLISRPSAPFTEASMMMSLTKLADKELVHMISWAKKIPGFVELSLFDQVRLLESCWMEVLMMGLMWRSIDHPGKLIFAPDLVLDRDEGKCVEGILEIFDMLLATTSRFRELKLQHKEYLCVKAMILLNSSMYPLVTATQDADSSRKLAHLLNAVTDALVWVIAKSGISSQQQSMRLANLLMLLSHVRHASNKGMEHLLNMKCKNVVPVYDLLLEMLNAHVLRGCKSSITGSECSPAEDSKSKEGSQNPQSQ

Cytochrome P450 2C9 = Cytochrome P450 2C9 (Homo sapiens, UniProt P11712)
Chain of Cytochrome P450 2C9 (P11712 whole entry): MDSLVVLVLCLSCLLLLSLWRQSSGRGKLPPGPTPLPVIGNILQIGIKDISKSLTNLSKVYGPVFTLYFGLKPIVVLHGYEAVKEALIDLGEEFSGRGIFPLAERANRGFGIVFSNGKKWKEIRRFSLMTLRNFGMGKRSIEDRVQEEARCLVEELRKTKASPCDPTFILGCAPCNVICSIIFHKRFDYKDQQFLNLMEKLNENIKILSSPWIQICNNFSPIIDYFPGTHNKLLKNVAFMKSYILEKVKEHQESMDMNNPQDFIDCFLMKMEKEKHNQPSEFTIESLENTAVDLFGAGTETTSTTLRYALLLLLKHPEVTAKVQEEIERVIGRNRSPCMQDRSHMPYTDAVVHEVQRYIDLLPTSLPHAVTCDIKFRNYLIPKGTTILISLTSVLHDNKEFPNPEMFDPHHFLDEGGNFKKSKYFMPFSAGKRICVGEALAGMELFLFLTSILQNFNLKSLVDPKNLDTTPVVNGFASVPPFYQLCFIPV

Estrogen receptor beta [13] = biological target: T3, Estrogen receptor beta
Cytochrome P450 2C19 = Cytochrome P450 2C19 (Homo sapiens, UniProt P33261); test: Cytochrome panel assay with activity outcomes. Panel member name: p450-cyp2c19 Compounds with AC50 equal or less than 10 uM are considered active; type: functional
Chain of Cytochrome P450 2C19 (P33261 whole entry): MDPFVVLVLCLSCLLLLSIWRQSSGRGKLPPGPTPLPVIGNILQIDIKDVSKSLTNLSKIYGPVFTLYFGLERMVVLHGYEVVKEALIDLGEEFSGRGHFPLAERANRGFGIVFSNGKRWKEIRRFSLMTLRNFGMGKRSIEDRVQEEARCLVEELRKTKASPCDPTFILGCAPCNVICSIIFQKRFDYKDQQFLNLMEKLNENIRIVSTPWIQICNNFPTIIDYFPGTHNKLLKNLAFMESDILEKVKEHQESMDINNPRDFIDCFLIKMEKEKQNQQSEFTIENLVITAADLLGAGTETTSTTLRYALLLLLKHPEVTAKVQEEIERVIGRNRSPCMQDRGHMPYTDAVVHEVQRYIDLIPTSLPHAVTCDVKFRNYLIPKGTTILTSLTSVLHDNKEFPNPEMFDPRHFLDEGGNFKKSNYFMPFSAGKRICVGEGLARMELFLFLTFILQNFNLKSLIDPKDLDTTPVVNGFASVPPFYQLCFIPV

[14] = THP-1 cell cytotoxicity, dose response, cytotoxicity control for Vif-APOBEC3G degradation inhibitor project, THP-1 cells (AID 1117359); type: functional; conditions: Human immunodeficiency virus 1, THP-1
Protein Tat = biological target: T4, Protein Tat (Human immunodeficiency virus type 1 group M subtype B (isolate HXB2)(HIV-1), UniProt P04608); type: functional;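 also: tat binding to TAR RNA read out by fluorescence polarization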
T4 sequence (P04608 whole entry): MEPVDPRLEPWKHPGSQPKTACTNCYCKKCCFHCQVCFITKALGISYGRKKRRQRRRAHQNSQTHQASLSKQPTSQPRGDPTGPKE

[15] = biological target: T5, Ubiquitin carboxyl-terminal hydrolase BAP1 (Homo sapiens, UniProt Q92560); test: BAP1 deubiquitinase inhibitors, dose response, biochemical (AID 714); type: functional
T5 sequence (Q92560 whole entry): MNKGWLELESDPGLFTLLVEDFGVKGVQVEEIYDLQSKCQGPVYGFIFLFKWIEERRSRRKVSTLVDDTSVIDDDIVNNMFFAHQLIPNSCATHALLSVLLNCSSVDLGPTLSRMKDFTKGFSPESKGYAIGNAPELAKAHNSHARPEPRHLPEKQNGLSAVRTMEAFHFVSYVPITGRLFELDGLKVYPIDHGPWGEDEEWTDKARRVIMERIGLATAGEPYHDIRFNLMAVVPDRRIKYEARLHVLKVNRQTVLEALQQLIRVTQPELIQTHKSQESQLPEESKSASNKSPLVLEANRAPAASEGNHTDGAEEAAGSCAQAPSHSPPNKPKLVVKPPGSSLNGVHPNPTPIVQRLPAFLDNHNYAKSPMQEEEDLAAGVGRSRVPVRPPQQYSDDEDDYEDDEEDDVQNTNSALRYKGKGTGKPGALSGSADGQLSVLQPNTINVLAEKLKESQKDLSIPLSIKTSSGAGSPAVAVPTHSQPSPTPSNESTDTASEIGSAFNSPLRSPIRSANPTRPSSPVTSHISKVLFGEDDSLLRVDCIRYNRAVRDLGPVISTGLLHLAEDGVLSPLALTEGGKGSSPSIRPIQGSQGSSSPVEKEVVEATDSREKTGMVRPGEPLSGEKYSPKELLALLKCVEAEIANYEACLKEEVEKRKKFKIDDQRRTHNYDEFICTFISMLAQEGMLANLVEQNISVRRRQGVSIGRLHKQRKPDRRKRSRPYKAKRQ

cells [16] = type: functional, cell-based
[17] = biological target: T6, Trace amine-associated receptor 1 (Homo sapiens, UniProt Q96RJ0); test: Fluorescence-based cell-based high throughput dose response assay to identify agonists of the human trace amine associated receptor 1 (TAAR1).; type: functional
T6 sequence (Q96RJ0 whole entry): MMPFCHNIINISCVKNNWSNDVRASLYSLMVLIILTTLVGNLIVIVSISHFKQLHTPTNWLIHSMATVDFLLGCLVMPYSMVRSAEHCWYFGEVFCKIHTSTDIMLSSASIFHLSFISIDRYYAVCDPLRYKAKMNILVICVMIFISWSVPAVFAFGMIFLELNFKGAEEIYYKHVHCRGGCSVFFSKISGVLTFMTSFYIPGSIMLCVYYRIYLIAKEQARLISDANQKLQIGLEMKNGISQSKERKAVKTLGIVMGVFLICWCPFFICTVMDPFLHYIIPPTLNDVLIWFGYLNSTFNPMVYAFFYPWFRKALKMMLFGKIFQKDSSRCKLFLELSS

[18] = biological target: T6, Trace amine-associated receptor 1; test: Counterscreen for agonists of the human trace amine associated receptor 1 (hTAAR1): Fluorescence-based cell-based high throughput dose response assay to identify hTAAR1 agonist that also desensitize TAAR1 receptor response.; type: functional
cells [19] = type: functional, cell-based; remark: listed apart in the source
[20] = biological target: T7, Calpain-2 catalytic subunit (Sus scrofa, UniProt P43367); test: pig calpain II inhibitor potency, dose response, biochemical, fluorogenic peptide substrate (AID 1420); type: functional
T7 sequence (P43367 whole entry): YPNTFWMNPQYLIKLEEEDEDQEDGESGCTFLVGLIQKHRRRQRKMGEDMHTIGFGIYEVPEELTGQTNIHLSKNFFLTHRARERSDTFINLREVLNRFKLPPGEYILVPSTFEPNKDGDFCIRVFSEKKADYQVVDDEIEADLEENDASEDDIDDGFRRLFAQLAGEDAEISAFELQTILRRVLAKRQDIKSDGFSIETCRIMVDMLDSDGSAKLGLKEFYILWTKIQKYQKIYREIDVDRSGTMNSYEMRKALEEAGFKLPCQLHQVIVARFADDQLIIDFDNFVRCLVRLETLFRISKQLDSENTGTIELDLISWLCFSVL

Kallikrein-7 = Kallikrein-7 (Homo sapiens, UniProt P49862); test: Fluorescence Intensity-based biochemical primary high throughput dose response assay to identify activators of kallikrein-7 (K7) zymogen.
Chain of Kallikrein-7 (P49862 whole entry): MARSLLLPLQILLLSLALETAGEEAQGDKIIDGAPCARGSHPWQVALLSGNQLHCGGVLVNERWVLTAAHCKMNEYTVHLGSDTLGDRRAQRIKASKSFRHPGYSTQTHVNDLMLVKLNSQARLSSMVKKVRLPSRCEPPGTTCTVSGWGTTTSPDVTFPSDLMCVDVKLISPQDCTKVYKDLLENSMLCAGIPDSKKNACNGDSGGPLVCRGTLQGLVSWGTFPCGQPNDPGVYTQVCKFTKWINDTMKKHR

[21] = P. falciparum Dd2 growth inhibitors, dose response, SYBR Green, dry powder samples, set 9 (AID 1159568); type: functional, cell-based

Chain of 5-hydroxytryptamine receptor 2A (P35363 whole entry): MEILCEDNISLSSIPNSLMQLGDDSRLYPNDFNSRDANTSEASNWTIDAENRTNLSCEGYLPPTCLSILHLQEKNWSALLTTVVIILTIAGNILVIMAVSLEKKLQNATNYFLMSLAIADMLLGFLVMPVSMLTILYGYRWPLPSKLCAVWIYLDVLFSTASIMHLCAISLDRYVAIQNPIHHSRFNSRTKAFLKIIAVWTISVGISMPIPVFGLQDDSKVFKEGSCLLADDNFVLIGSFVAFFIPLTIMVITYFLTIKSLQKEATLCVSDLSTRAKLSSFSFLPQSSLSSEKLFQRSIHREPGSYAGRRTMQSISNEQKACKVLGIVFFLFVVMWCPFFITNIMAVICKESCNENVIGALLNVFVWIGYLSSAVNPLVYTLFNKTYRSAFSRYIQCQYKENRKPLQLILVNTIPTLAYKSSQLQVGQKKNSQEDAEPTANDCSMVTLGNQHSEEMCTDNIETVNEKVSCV

SMILES: CC(=O)c1ccc(OCC(O)CN2CCN(c3ccccn3)CC2)cc1 (stereo not drawn)
- EC50 [1]: 0.865 µM (active)
- EC50 (Mu-type opioid receptor): 92.4 µM (inactive)

SMILES: CCOc1ccc(N(CC(=O)NCCSCc2ccc(Cl)cc2)S(C)(=O)=O)cc1
- AC50 [2]: 9.3 µM (active)
- AC50 [3]: 9.39 µM (active)
- AC50 [4]: 5.62 µM (active)
- AC50 [5]: 5.88 µM (active)

SMILES: O=Cc1cn(Cc2cccc([N+](=O)[O-])c2)c2ccccc12
- AC50 [6]: 0.801 µM (active)
- IC50 (Fatty acid synthase [7]): 10.9 µM (active)
- AC50 [8]: 0.625 µM (active)
- IC50 (Fatty acid synthase [9]): 12 µM (active)
- AC50 [10]: 1.28 µM (active)

SMILES: COc1cccc(CN2CC(=O)C(c3nc(-c4ccc(Cl)cc4)cs3)=C2N)c1
- IC50 [11]: 5.59 µM (active)

SMILES: O=C(O)/C=C/C(=O)NCCc1ccc(Cl)cc1
- EC50 (cells [16]): > 29.9 µM (inactive)
- EC50 [17]: 51.7 µM (inactive)
- IC50 [18]: > 29.9 µM (inactive)
- IC50 (cells [19]): > 29.9 µM (inactive)

SMILES: Cc1ccn2c(=O)c(C(=O)NCCC3=CCCCC3)c(O)nc2c1
- EC50 (cells [16]): > 29.9 µM (inactive)
- EC50 [17]: 3.44 µM (active)
- IC50 [18]: > 29.9 µM (inactive)
- IC50 (cells [19]): > 29.9 µM (inactive)

SMILES: O=C(NC1CCCCC1)C(=S)NCCc1ccccc1
- EC50 (cells [16]): > 29.9 µM (inactive)
- EC50 [17]: 2.41 µM (active)
- IC50 [18]: 5.49 µM (active)
- IC50 (cells [19]): > 29.9 µM (inactive)

SMILES: OC(COCc1cccs1)CN1CCN(c2ccccn2)CC1 (stereo not drawn)
- EC50 [1]: 0.637 µM (active)
- EC50 (Mu-type opioid receptor): 92.5 µM (inactive)

SMILES: CCOc1ccc(NC2=NC(=O)S/C2=C\c2ccc(Cl)cc2)cc1
- IC50 [20]: > 50 µM (not active)
- IC50 [11]: 2.79 µM (active)

SMILES: O=C(NCc1ccco1)c1cc2n(n1)C(C(F)(F)F)CC(c1ccc(Br)cc1)N2 (stereo not drawn)
- IC50 [15]: > 50 µM (not active)

SMILES: Cc1cccc2cc(C(c3nnnn3C(C)(C)C)N3CCN(C(=O)c4ccco4)CC3)c(=O)[nH]c12 (stereo not drawn)
- IC50 [15]: 17.3 µM (active)

SMILES: CC1(C(=O)NCc2cccc3ccccc23)CCN1Cc1ccc(-c2ccccc2)o1 (stereo not drawn)
- AC50 [2]: 4.71 µM (active)
- AC50 [3]: 4.07 µM (active)
- AC50 [4]: 2.31 µM (active)
- AC50 [5]: 2.57 µM (active)

SMILES: CCC(/C=C(\O)c1ccncc1)=N\c1ccc(O)cc1
- CC50 [14]: > 40 µM (active)
- IC50 (Protein Tat): 18.3 µM (inconclusive)

SMILES: COc1ccc(NC(=O)N(C)C[C@H]2Oc3c(NC(=O)CCCCCC(=O)Nc4ccccc4N)cccc3C(=O)N([C@H](C)CO)C[C@H]2C)cc1
- AC50 [21]: 0.304 µM (active)

SMILES: COc1ccccc1C#Cc1ccc([C@@H]2[C@@H](CO)N3CCCCN(C(=O)C4CCC4)C[C@H]23)cc1
- AC50 [21]: 8.41 µM (active)

Continued, in another order:

- EC50 [1]: 0.0593 µM (active)
- EC50 (Mu-type opioid receptor): 92.5 µM (inactive)
SMILES: Cc1ccc(CN2CCN(c3ccccn3)CC2)s1

- EC50 (Mucolipin-3): > 29.9 µM (not active)
- EC50 (Ion channel NompC): > 29.9 µM (not active)
SMILES: CC1(C)CCCC2=C1CC1C(=O)N(c3ccccc3)C(=O)C1C2 (stereo not drawn)

- AC50 (Cytochrome P450 3A4): 39.8 µM (inconclusive)
- IC50 (Estrogen receptor beta [12]): 32.1 µM (not active)
- AC50 (Cytochrome P450 2C9): 0.1 µM (inconclusive)
- IC50 (Estrogen receptor beta [13]): 18.4 µM (active)
- AC50 (Cytochrome P450 2C19): inconclusive
SMILES: Cc1ccc(C)c(C(=O)C2=C(O)C(=O)N(CCN3CCOCC3)C2c2ccco2)c1 (stereo not drawn)

- IC50 (Protein Tat): 47.4 µM (inconclusive)
- IC50 [15]: 30.2 µM (not active)
SMILES: CN(C)c1ccc(NC(=O)CSc2nc3ccccc3c(=O)n2C2CCCCC2)cc1
- CC50 [14]: > 40 µM (active)

- IC50 [11]: 4.49 µM (active)
SMILES: O=C(Oc1ccccc1Cl)c1ccccc1P(=O)(O)O

- EC50 (Kallikrein-7): 7.44 µM (active)
SMILES: C[C@H](O)[C@@H]1C(=O)N2CCc3c([nH]c4ccccc34)[C@@H]2C[C@@H]1N(C)S(=O)(=O)c1ccccc1

- EC50 (Kallikrein-7): > 69.5 µM (inactive)
SMILES: Cc1ccc(/C=N/c2ccccc2C(N)=O)cc1
